The source of these data is ChEMBL document CHEMBL5532646, “Discovery of 4-(N-dithiobenzyl piperazine)-1,8-naphthalimide as a potent multi-target antitumor agent with good efficacy, limited toxicity, and low resistance” (Eur J Med Chem, 2024).

Calls of active or inactive are those of the source. The rule behind the calls is not given here.

The term IC50 denotes the concentration needed to halve the response being measured. As usually defined, the inhibition in vivo is how much of the control response was suppressed.

A short description of data set [1]: Toxicity in nude mouse model xenografted with human HepG2 cells assessed as pathological change in liver at 5 to 15 mg/kg, ip administered once every two days for 21 days. Format: organism-based. The following applies: in vivo, 504 h, dose 5-15 mg/kg, time 21 day.
Data set [2] can be described thus: Toxicity in nude mouse model xenografted with human SK-OV-3 cells assessed as pathological change in liver at 15 mg/kg, ip administered once every two days for 21 days. Format: organism-based. The following applies: in vivo, 504 h, time 21 day.
The nature of data set [3]: Toxicity in nude mouse model xenografted with human T24 cells assessed as pathological change in heart at 5 to 15 mg/kg, ip administered once every two days for 21 days. It is filed as organism-based, T-24. The note with it: in vivo, 504 h, dose 5-15 mg/kg, time 21 day.
Data set [4] can be described thus: Toxicity in nude mouse model xenografted with human SK-OV-3 cells assessed as pathological change in lung at 15 mg/kg, ip administered once every two days for 21 days. Format: organism-based. The note with it: in vivo, 504 h, time 21 day.
In data set [5] the test system is T-24. Nature of the data set: Antiproliferative activity against human T24 cells incubated for 48 hrs by MTT assay. Format: functional, cell-based. The following applies: T-24, 48 h. In general terms: Tetrazolium dyes change colour on reduction, which living cells bring about.
Data set [6] relates to HepG2. Nature of the data set: Antiproliferative activity against human HepG2 cells incubated for 48 hrs by MTT assay. It is filed as functional, cell-based. The note with it: HepG2, 48 h.
Another data set has as its system A549. The data set can be described thus: Antiproliferative activity against human A549 cells incubated for 48 hrs by MTT assay. Format: functional, cell-based.
Data set [7] is described as follows: Toxicity in nude mouse model xenografted with human HepG2 cells assessed as pathological change in lung at 5 to 15 mg/kg, ip administered once every two days for 21 days. It is filed as organism-based. The following applies: in vivo, 504 h, dose 5-15 mg/kg, time 21 day. (A xenograft is tissue or cells of one species grown in another, often human tumour cells in immunodeficient mice.)

Data set [8] is described as follows: Toxicity in nude mouse model xenografted with human SK-OV-3 cells assessed as pathological change in heart at 15 mg/kg, ip administered once every two days for 21 days. Format: organism-based. The note with it: in vivo, 504 h, time 21 day.
For data set [9], the system named is T-24. Nature of the data set: Antiproliferative activity against human T24 cells xenografted in nude mouse model assessed as tumor inhibition rate at 5 mg/kg, ip administered once every two days for 21 days relative to control. The note with it: T-24, 504 h, time 21 day. Format: functional.
Data set [10] can be described thus: Toxicity in nude mouse model xenografted with human T24 cells assessed as pathological change in lung at 5 to 15 mg/kg, ip administered once every two days for 21 days. It is filed as organism-based, T-24. The following applies: in vivo, 504 h, dose 5-15 mg/kg, time 21 day.
Data set [11] is described as follows: Toxicity in nude mouse model xenografted with human T24 cells assessed as pathological change in liver at 5 to 15 mg/kg, ip administered once every two days for 21 days. Format: organism-based, T-24. The note with it: in vivo, 504 h, dose 5-15 mg/kg, time 21 day.
For data set [12], the system named is HepG2. The data set can be described thus: Antiproliferative activity against human HepG2 cells xenografted in nude mouse model assessed as tumor inhibition rate at 15 mg/kg, ip administered once every two days for 21 days relative to control. The note with it: HepG2, 504 h, time 21 day. It is filed as functional.
Data set [13] has as its system T-24. Nature of the data set: Antiproliferative activity against human T24 cells xenografted in nude mouse model assessed as tumor inhibition rate at 15 mg/kg, ip administered once every two days for 21 days relative to control. It is filed as functional. The note with it: T-24, 504 h, time 21 day.
Data set [14] can be described thus: Toxicity in nude mouse model xenografted with human T24 cells assessed as pathological change in spleen at 5 to 15 mg/kg, ip administered once every two days for 21 days. Format: organism-based, T-24. The note with it: in vivo, 504 h, dose 5-15 mg/kg, time 21 day.
The nature of data set [15]: Toxicity in nude mouse model xenografted with human HepG2 cells assessed as pathological change in spleen at 5 to 15 mg/kg, ip administered once every two days for 21 days. The following applies: in vivo, 504 h, dose 5-15 mg/kg, time 21 day. It is filed as organism-based.
Data set [16] deals with HepG2. Nature of the data set: Antiproliferative activity against human HepG2 cells xenografted in nude mouse model assessed as tumor inhibition rate at 5 mg/kg, ip administered once every two days for 21 days relative to control. The note with it: HepG2, 504 h, time 21 day. It is filed as functional.
Data set [17] can be described thus: Toxicity in nude mouse model xenografted with human SK-OV-3 cells assessed as pathological change in spleen at 15 mg/kg, ip administered once every two days for 21 days. It is filed as organism-based. The note with it: in vivo, 504 h, time 21 day.
Another data set deals with A549/CDDP. The data set can be described thus: Antiproliferative activity against human A549/DDP cells incubated for 48 hrs by MTT assay. Format: functional, cell-based.
Data set [18] deals with SK-OV-3. The data set can be described thus: Antiproliferative activity against human SK-OV-3 cells incubated for 48 hrs by MTT assay. It is filed as functional, cell-based. The following applies: SK-OV-3, 48 h.
The subject of the next data set is MGC-803. The data set can be described thus: Antiproliferative activity against human MGC-803 cells incubated for 48 hrs by MTT assay. It is filed as functional, cell-based. The following applies: MGC-803, 48 h.
Data set [19] relates to SK-OV-3. The data set can be described thus: Antiproliferative activity against human SK-OV-3 cells xenografted in nude mouse model assessed as tumor inhibition rate at 15 mg/kg, ip administered once every two days for 21 days relative to control. The following applies: SK-OV-3, 504 h, time 21 day. Format: functional.
Data set [20] in a line: Toxicity in nude mouse model xenografted with human HepG2 cells assessed as pathological change in heart at 5 to 15 mg/kg, ip administered once every two days for 21 days. Format: organism-based. The note with it: in vivo, 504 h, dose 5-15 mg/kg, time 21 day.
Data set [21] deals with SK-OV-3. The data set can be described thus: Antiproliferative activity against human SK-OV-3 cells xenografted in nude mouse model assessed as tumor inhibition rate administered intraperitoneally once every two days for 21 days. It is filed as functional, cell-based. The note with it: dose 15.0 mg/kg, route ip, time 21.0 day.
The test system of data set [22] is SK-OV-3. Nature of the data set: Antiproliferative activity against human SK-OV-3 cells xenografted in nude mouse model assessed as tumor inhibition rate at 5 mg/kg, ip administered once every two days for 21 days relative to control. The following applies: SK-OV-3, 504 h, time 21 day. It is filed as functional.

With `CNCCCN1C(=O)c2cccc3c(N4CCN(C(=S)SCc5ccccc5)CC4)ccc(c23)C1=O`, the Activity entry in data set [1], in data set [2], in data set [3], in data set [4], in data set [7] and in [8] was “Non-Toxic” throughout. Besides, the Activity entry in data set [10], in data set [11], in data set [14], in data set [15], in data set [17] and in data set [20] was “Non-Toxic” in each case. The IC50 in the data set with T-24 [5] worked out at 0.59 µM; with HepG2 [6], 1.54 µM; in the data set with SK-OV-3 [18] it was 1.07 µM; in the data set with MGC-803, 3.04 µM. The result with A549 and in the data set on A549/CDDP was Active. The inhibition in vivo at 5 mg/kg with T-24 [9] was 55.1%; in the data set with HepG2 [16], 53%. Besides, the results for the inhibition in vivo at 15 mg/kg in the data set with HepG2 [12], in the data set on T-24 [13] and with SK-OV-3 [19] were 58.8%, 57.1% and 53.1%, respectively. In the data set on SK-OV-3 [21], the inhibition result was “Dose-Dependent Effect”.
On to `CN(C)CCN1C(=O)c2cccc3c(N4CCN(C(=O)c5ccccc5)CC4)ccc(c23)C1=O`, for which the Activity entry in [1], in data set [3], in [7], in data set [10], in [11] and in data set [14] was “Non-Toxic” throughout. Moreover, the Activity result in data set [15] and in data set [20] was “Non-Toxic” in each case. Also, the IC50 with T-24 [5] amounted to 2.08 µM; with HepG2 [6], 4.78 µM; in the data set with SK-OV-3 [18] it was 2.01 µM; in the data set on MGC-803, 5.73 µM. The outcome in the data set on A549 and in the data set with A549/CDDP was Active. Also, the inhibition in vivo at 5 mg/kg in the data set on T-24 [9] was 55%; with HepG2 [16], 51.5%. In addition, the inhibition in vivo at 15 mg/kg is 54.5% in the data set on HepG2 [12] and 64.5% in the data set with T-24 [13].
As to `CN(C)CCN1C(=O)c2cccc3cc(N)cc(c23)C1=O` [AMONAFIDE], the inhibition in vivo at 5 mg/kg in the data set on SK-OV-3 [22] came to 62.1%; in the data set on T-24 [9] it was 70.6%. The midpoint of inhibition with HepG2 [6], the IC50, lay at 7.94 µM. Besides, the inhibition in vivo at 15 mg/kg in the data set on HepG2 [12] came out at 62%.
In the case of `O=C(c1ccccc1)N1CCN(c2ccc3c4c(cccc24)C(=O)N(Nc2nc4ccccc4s2)C3=O)CC1`, the IC50 was 24.1 µM with T-24 [5], 22.4 µM in the data set with HepG2 [6], 19.4 µM in the data set on SK-OV-3 [18] and 27.5 µM in the data set with MGC-803.
Taken in the same sequence, the figures for `CCCCN1C(=O)c2cccc3c(N4CCN(C(=O)c5ccccc5)CC4)ccc(c23)C1=O` were 10.4 µM, 14.3 µM, 15.4 µM and 11.2 µM.
